Results: patent publication US20140187627A1, “USES OF C15-SUBSTITUTED ANDROGRAPHOLIDE DERIVATIVES IN THE PREPARATION OF ANTI-HEPATITIS B VIRUS MEDICAMENT” (ZHENGZHOU UNIVERSITY, priority 2011, published 2014)
Values joined by “and” are separate entries in the source; they are usually repeats but may differ in a detail not shown here. Equal entries are not always repeated.

What was measured:
HBV = conditions: cited from earlier work
[1] = test system: HBV surface antigen (HBsAg) of HBV-transfected HepG2.2.15 cell line; experiment: Inhibition of HBsAg secretion in culture supernatant of HepG2.2.15 cells (ELISA), with MTT cytotoxicity for therapeutic index; assay type: cell-based, Hepatitis B virus
Method: HepG2.2.15 cell line, stably transfected with HBV-DNA, was used to evaluate the inhibition of the compounds against the HBV surface antigen (HBsAg) level in the culture supernatant of HepG2.2.15 cell. HepG2.2.15 cells were seeded at a density of 1.25×10^4 cells/well into 48-well plates, 0.5 ml RPMI1640 medium containing 10% fetal bovine serum, 100 unit/ml penicillin, 100 μg/ml streptomycin and 380 μg/ml geneticin (G418) was added to the well. Cells were incubated at 37° C. in a humidified incubator of 5% CO2 for 24 h, and then the culture medium was replaced by fresh medium containing Lamivudine (the positive drug) and compounds of this invention at five concentrations. The culture medium was replaced by a fresh one after 3 days and 6 days incubation, respectively. On d9, the supernatant was collected to determine the HBsAg level and the cells were used to assay the viability by MTT method.
Add 100 μl PBS solution containing 0.5 mg/ml MTT [3-(4,5-dimethylthiazol-2-yl)-2,5diphenyltetrazolium bromide] to the well after removing the supernatant, incubate at 37° C. for 4 h, remove the medium, add […] of DMSO to each well and the plates were shaken for 10 min. The optical density value (A) of each well was read using a PowerWaveX Microplate Scanning Spectrophotometer (Bio-tek Instruments, Inc) at 490 nm. Cells survival rate was calculated. […]

SMILES | Anti-HBV effect in vitro (HBV) | Therapeutic index (TI = TC50/IC50) ([1]; HepG2.2.15 cells, treated for 9d, TC50 by MTT) | IC50 ([1]; Hepatitis B virus, HepG2.2.15, 216 h, read-out: IC50 against HBsAg secretion)
C=C1CCC2C(C)(COC(=O)c3cccnc3)C(OC(=O)c3cccnc3)CCC2(C)C1C=CC1=CC(=Cc2ccc(Cl)cc2)OC1=O (stereo not drawn) [15-p-chlorobenzylidene-14-deoxy-11, 12-didehydro-3, 19-dinicotinate-andrographolide] | anti-HBV effect in vitro | – | –
Nc1ccn([C@@H]2CS[C@H](CO)O2)c(=O)n1 [Lamivudine] | – | greater than 2 | ~10 µg/mL and ~43.7 µM
